We go through one compound from patent US11628164B2, “Composition containing salsolinol for treating liver cancer” (SUNGSHIN WOMEN'S UNIVERSITY R&DB FOUNDATION, priority 2020, dated 2023).

Assay [1] deals with STAT3, pSTAT3, PCNA, 15-PGDH, p53 in SNU387. In words: Western blotting of tumor-related genes in SNU387. It counts as cell-based, human. The settings on record: SNU387, 25 μM salsolinol, 72 hours. The protocol:
5×10^5 cells of Human-derived liver cancer cell lines SK-Hep1 and SNU387 are cultured in a 60 mm culture vessel, the cells are lysed, and proteins are separated through electrophoresis. And after that, western blotting analysis is performed by using a specific antibody. After treatment of the SK-Hep1 and the SNU387 with the salsolinol at different times and concentrations, the cells are washed with PBS, and the cells are scraped off with a scraper. The cells are lysed in a lysis buffer for 1 hour, and after that, centrifuge separation is performed at 13,000 rpm for 15 minutes at 4° C., and only the supernatant is extracted. 20 μg of protein contained in the supernatant is electrophoresed on SDS-polyacrylamide gel, and after that, transferred to a PVDF membrane for 2 hours. The sample reacts with antibodies pSTAT3(#9145), STAT3(#9132), PCNA(#2586), 15-PGDH(cayman No. 160615), p53(sc-126), p53(sc-99), pAKT(#9271), AKT(#9272), Annexin A2(#8235), and GAPDH(sc-32233). The protein is detected by using an enhanced chemiluminascence (ECL) detection solution. As a result of the above-described experiment, it is confirmed that the activity of cells in the liver cancer cell lines SK-Hep1 is decreased by the salsolinol, and particularly, the specificity for the liver cancer cell lines is confirmed. In order to check the correlation between the decrease in the activity of cells of the liver cancer cell lines by the salsolinol and the gene expression, the SK-Hep1 which is a liver cancer cell line and the SNU387 which is a liver cancer cell line are cultured, and the samples are treated with 25 μM of salsolinol d for 72 hours. After the treatment, changes in the expression levels of tumor-related genes such as STAT3, pSTAT3, PCNA, 15-PGDH, and p53 are checked (refer to FIG. 4).

Assay [2] relates to AKT, p-AKT, Annexin A2, PCNA in liver tissue. In words: Western blotting of liver tissue, DEN-induced liver cancer mouse model. It is filed as in vivo, C57BL/6 mouse. The note with it: DEN+SAL liver tissue. On the procedure: 5×10^5 cells of Human-derived liver cancer cell lines SK-Hep1 and SNU387 are cultured in a 60 mm culture vessel, the cells are lysed, and proteins are separated through electrophoresis. And after that, western blotting analysis is performed by using a specific antibody. After treatment of the SK-Hep1 and the SNU387 with the salsolinol at different times and concentrations, the cells are washed with PBS, and the cells are scraped off with a scraper. The cells are lysed in a lysis buffer for 1 hour, and after that, centrifuge separation is performed at 13,000 rpm for 15 minutes at 4° C., and only the supernatant is extracted. 20 μg of protein contained in the supernatant is electrophoresed on SDS-polyacrylamide gel, and after that, transferred to a PVDF membrane for 2 hours. The sample reacts with antibodies pSTAT3(#9145), STAT3(#9132), PCNA(#2586), 15-PGDH(cayman No. 160615), p53(sc-126), p53(sc-99), pAKT(#9271), AKT(#9272), Annexin A2(#8235), and GAPDH(sc-32233). The protein is detected by using an enhanced chemiluminascence (ECL) detection solution.
The salsolinol (200 mg/kg) is administered for 6 months through intraperitoneal injection three times per week from the time when the DEN-induced liver cancer mouse model (male) became 7 weeks of age. After the mouse is sacrificed, the experiment is performed.
The normal mouse, the DEN-induced liver cancer mouse model, and the DEN-induced liver cancer mouse model administered with the salsolinol are sacrificed, the livers are excised, the liver tissues are crushed, and the proteins are extracted. After separating the extracted protein through electrophoresis, the expression levels of tumor-related genes AKT, p-AKT, Annexin A2, and PCNA and the changes in the expression levels are analyzed by using a Western blotting method (refer to FIG. 9).

The test system of assay [3] is Snai1, Vimentin genes in liver tissue. In words: Real-time quantitative PCR of liver tissue, DEN-induced liver cancer mouse model. It counts as in vivo, C57BL/6 mouse. The settings on record: DEN+SAL liver tissue, corrected with β-actin. On the procedure:
A normal mouse (M-Ctrl, n=5), a DEN-induced liver cancer mouse model (M-DEN, n=4), and a DEN-induced liver cancer mouse model treated with the salsolinol (M-DEN+SAL, n=5) are sacrificed, and liver tissues are obtained. And after that, trizol is added to lyse the liver tissues. 1 ml of a TRI reagent solution is added to the liver tissue, and after homogenization, centrifuge separation is performed at 4° C. and 12,000 rpm for 10 minutes. About 0.75 ml of the middle layer excluding the upper and lower debris is separated and put into a new tube. […]
After removing the supernatant, the RNA is washed with 75% ethanol, centrifuge separation is performed at 4° C. at 7,500 rpm for 5 minutes, and the remaining ethanol is evaporated at room temperature. The separated total RNA is quantified by using Nandrop 2000 (Thermo), and after that, cDNA is synthesized by using a reverse transcription reaction oligo dT primer and RT enzyme. By using the synthesized cDNA as a template, after addition of each primer and Bio-Rad SYBR mix (#1725270) and amplification by using a Bio-Rad Real-Time PCR instrument, analysis is performed by using quantitative software. The products amplified by real time PCR are quantified by using a comparative cycle threshold (Ct) method. […]

For `CC1NCCc2cc(O)c(O)cc21` (stereo not shown) [salsolinol, 6,7-dihydroxy-1-methyl-1,2,3,4-tetrahydroisoquinoline], in assay [1], the 15-PGDH expression level entry is listed as “remains constant”, the PCNA expression level result is reported as “rather increased”, the STAT3 expression level result is reported as “remains constant” and the p53 expression level entry is “not changed”. Moreover, in assay [1], the pSTAT3 expression level result is recorded as “not decreased”. Further, in assay [2], the “Annexin A2 expression level” value is given as “decreased”, the PCNA expression level entry was “decreased to the level of the normal mouse” and the “degree of phosphorylation of AKT (p-AKT)” value was “decreased to the level of the normal mouse”. Besides, in assay [3], the “Snai1 gene expression level” value is “decreased to the expression level of expression in the normal mouse” and the “Vimentin gene expression level” value is given as “decreased to the expression level of expression in the normal mouse”.
